± gives the expanded uncertainty stated by the source. One block for each molecule: values may come before it.
Conditions: Liquid, Ebulliometric method (Recirculating still)

vapor or sublimation pressure (355.59 K): 101.33 ± 0.71 kPa
SMILES: CC(C)(C)O [2-methylpropan-2-ol]

vapor or sublimation pressure (371.05 K): 101.33 ± 0.71 kPa
SMILES: CC(=O)OC(C)(C)C [1,1-dimethylethyl ethanoate]

SMILES: Clc1ccccc1 [chlorobenzene]
vapor or sublimation pressure (404.8 K): 101.33 ± 0.71 kPa
